Measured values reported in patent US20130123386A1, “HINDERED PRIMARY CHLORINATED AMINE IN A LATEX FORMULATION” (ROHM AND HAAS COMPANY, priority 2011, published 2013).

Legend:
[1] = tested on: standard industrial inoculum; assay: Preservative efficacy (challenge) testing of latex binder samples, growth rating of streaked TSA plates; format: cell-based
Description: The samples prepared in accordance with Examples 1-4 and Comparative Example 1 were subjected to preservative efficacy testing in accordance with the following procedure:
A 1-g aliquot was removed from each sample and submitted for biocide analysis by a standard HPLC procedure to check the amount of isothiazolone microbicide dosed. The samples were then dosed with the standard industrial inoculum at a level of 0.1 mL/10 g.
All bacteria and yeast were stored at −70° C. to −80° C. in broth and glycerol (15%) prior to inoculum preparation. Molds were maintained on potato dextrose agar (PDA) plates at 2-5° C. The bacteria and yeast cultures were thawed and 0.1-mL aliquots of each were transferred into separate 10-mL aliquots of tryptic soy broth (TSB). These cultures were incubated at 30° C. for 18-24 h, with shaking at 150-200 rpm.
A volume of 10 mL of sterile phosphate buffer was measured out. The two mold strains were added by wetting sterile swabs in phosphate buffer, or water, and then rolling the swabs over the molds, covering an area of approximately 1 in^2 on each plate. The mold-covered swabs were then immersed in the 10 mL of phosphate buffer and agitated to suspend the spores. A volume of 0.1 mL of each bacterial culture, and a volume of 1 mL of each yeast culture, was then added to the mold mixture. The inoculum was blended by vortexing briefly. The organisms used in the inoculum and their corresponding American Type Culture Collection numbers (ATCC #) are shown in Table 1.
Samples were inverted several times to mix in the microorganisms. This inoculation challenged each test sample with 10^6-10^7 colony forming units/mL latex. Using a 10-μL sterile loop, latex samples were streaked onto tryptic soy agar (TSA) plates. This procedure was carried at t=0 and at several other time points during the first ˜5 h of the experiment to obtain speed-of-kill data. Additional time points were taken at t=1, 2 and 7 days. Between time points, all samples were stored at 30° C. In addition, all streaked TSA plates were incubated at 30° C. […]

[2] = Heat aging of amine/latex binder preparation at 50° C. for 14 days, concentration by GC; format: physicochemical; conditions: latex binder
Description: A 20.0-g dispersion of N-chloro-2,4,4-trimethylpentan-2-amine, 18% sodium lauryl sulfate, and water (C1-TOA, 0.47 g; SLS, 1.29 g; H2O, 18.24.g) with a particle size in the range of 100 to 850 nm was added to a butyl acrylate/methyl methacrylate/methacrylic acid latex binder (180 g; 50/49/1 percentages by weight) stabilized by SLS (1 weight percent) and Disponil FES 32 emulsifier (1 weight percent). The Cl-TOA/binder preparation was heat aged at 50° C. for 14 days. The concentration of Cl-TOA prior to the heat aging step was 2350 ppm (14 mM). The concentration of Cl-TOA after the heat-aging step was measured by GC to be ˜160 ppm based on the volume of the binder.
The procedures were carried out substantially as described for Example 1 except that, after heat-aging, a diluted sample of KATHON™ LX Microbicide Concentrate (A Trademark of The Dow Chemical Company or Its Affiliates) was mixed in with the binder/Cl-TOA preparation by shaking the samples at 200 rpm for 20 min, giving a final dosage of ˜5 ppm active. The concentration of Cl-TOA after the heat-aging step was measured by GC to be ˜160 ppm based on the volume of the binder.
The procedure of Example 2 was repeated except that the constituents of the added dispersion were Cl-TOA (0.19 g), SLS (0.52 g), and water (19.29 g). The concentration of Cl-TOA after the heat-aging step was estimated to be ˜65 ppm based on the volume of the binder.
(TOA, 0.38 g; SLS, 1.06 g; H2O, 18.56 g) with a particle size in the range of 100 to 850 nm was added to a butyl acrylate/methyl methacrylate/methacrylic acid latex binder (180 g; 50/49/1 percentages by weight) stabilized by SLS (1 weight percent) and Disponil FES 32 emulsifier (1 weight percent). The TOA/binder preparation was heat aged at 50° C. for 14 days. The concentration of TOA before heat aging was 1900 ppm (14 mM), and GC measurements indicated no change in TOA concentration as a result of heat aging. […]

| Compound | Efficacy as a quick-kill preservative ([1]; alone or in combination with the KATHON LX Microbicide, heat-aged latex binder) | Concentration of Cl-TOA after the heat-aging step (estimated) ([2]; 940 ppm (6 mM) before heat aging, estimated, based on the volume of the binder (Example 3)) [ppm] | Concentration of Cl-TOA after the heat-aging step ([2]; 2350 ppm (14 mM) before heat aging, measured by GC, based on the volume of the binder (Examples 1 and 2)) [ppm] | Biocidal activity ([1]; TOA itself) | Effect as an adjuvant for the biocide ([1]; with KATHON LX, compared to the microbiocide alone (Comp. Ex. 1)) | Change in TOA concentration as a result of heat aging ([2]; 1900 ppm (14 mM) before heat aging, GC (Example 4)) |
| --- | --- | --- | --- | --- | --- | --- |
| CC(C)(C)CC(C)(C)NCl [Cl-TOA, N-chloro-2,4,4-trimethylpentan-2-amine] | effective | ~65 | ~160 | – | – | – |
| CC(C)(C)CC(C)(C)N [TOA, 2,4,4-trimethylpentan-2-amine] | – | – | – | little or no biocidal activity | effective as an adjuvant | no change |
